The values below come from patent US7713991B2, “Imidazo[[1, 5-A] pyridine derivatives and methods for treating aldosterone mediated diseases” (Novartis AG, priority 2003, dated 2010).

Structures are written as SMILES.

Tested on in the first data set: not given
Experiment: not given
Settings: not given
Regarding `Cl.c1ccc(-c2ccc(-c3cccc4cncn34)cc2)cc1`, the melting point is 240 to 242 °C.
The same measure, in the same setting: the result for `Cl.c1ccc(-c2ccccc2-c2cccc3cncn23)cc1` reads 200 to 201 °C; that for `Cl.c1ccc2c(-c3cccc4cncn34)coc2c1`, 96 to 98 °C.
On the same count and under the same terms, the result for `Cl.O=C(OCc1ccccc1)N1CC=C(c2cccc3cncn23)CC1` reads 149 to 152 °C; that for `Cl.c1ccc2c(-c3cccc4cncn34)cccc2c1` [Example 1, 5-Naphthalen-1-yl-imidazo[1,5-a]pyridine hydrochloride], 222 to 223 °C.

For a further data set, the target named is aldosterone synthase (Rattus norvegicus, UniProt P30099). Put plainly: aldosterone synthase inhibitory activity in vitro. Type of data set: biochemical. The settings on record: rat adrenal glomerulosa homogenate, corticosterone substrate; read-out: inhibits the aldosterone synthase activity, IC50 value.
aldosterone synthase, sequence (P30099 35-510): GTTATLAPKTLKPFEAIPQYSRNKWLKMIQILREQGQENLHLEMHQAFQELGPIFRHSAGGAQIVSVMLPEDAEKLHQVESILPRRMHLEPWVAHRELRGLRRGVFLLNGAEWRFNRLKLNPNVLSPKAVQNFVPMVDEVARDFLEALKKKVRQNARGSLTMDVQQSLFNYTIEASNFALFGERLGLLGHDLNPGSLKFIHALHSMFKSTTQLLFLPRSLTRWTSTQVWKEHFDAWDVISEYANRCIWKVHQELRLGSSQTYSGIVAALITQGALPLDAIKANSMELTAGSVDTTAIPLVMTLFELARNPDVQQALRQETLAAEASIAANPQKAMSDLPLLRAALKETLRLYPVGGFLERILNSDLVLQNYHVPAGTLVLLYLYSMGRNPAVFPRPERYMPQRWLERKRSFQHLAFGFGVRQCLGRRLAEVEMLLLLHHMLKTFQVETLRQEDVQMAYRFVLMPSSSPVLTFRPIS
Source text: The aldosterone synthase inhibitory activity in vitro may be determined as follows:
Adult male Sprague-Dawley rats weighing 125-150 g are obtained from Harlan Farms. All animals are caged in pairs and maintained under standard conditions of light and temperature. The animals are placed on a sodium depleted diet (0.01-0.02%) from Harland Teklad, Madison Wis. (Cat. No. TD90228) and maintained on normal drinking water ad libitum. The animals are maintained on this diet for two to four weeks prior to harvesting the adrenal glomerulosa cells. The rats are killed by CO2 inhalation, and the adrenals are immediately removed and placed in the same ice-cold buffer used during homogenization and assay of the enzyme preparation. The adrenals are de-capsulated to obtain the glomerulosa tissue. The tissue is homogenized in a glass homogenizer containing Tris assay buffer (8.5 mM MgCl2, 2.7 mM CaCl2, 3.13 mM KCl, 7.59 mM NaCl, 0.1% TEA and 50 mM Tris HCl adjusted to pH 7.4). […] The plates are scanned for radioactivity with a Bioscan System 200 Imaging Scanner (Bioscan, Ish. D.C.). The two products of the aldosterone synthase, 18—OH-corticosterone and aldosterone are scraped and counted in a liquid scintillation counter (Beckman LS6000TA, Beckman Instr., Palo Alto, Calif.).
The slope (Hill Coefficient) and x intercept (IC50) are determined by linear regression of the experimental data.
In the case of `Cl.c1ccc2c(-c3cccc4cncn34)cccc2c1` [Example 1, 5-Naphthalen-1-yl-imidazo[1,5-a]pyridine hydrochloride], the IC50 was about 50 nM.
